# Experimental data: patent US20230321055A1, “PREVENTIVE TREATMENT OF MIGRAINE” (priority 2022, published 2023)
# Test system: participants with chronic migraine
# Test: Phase 3 randomized, double-blind, placebo-controlled study of atogepant for prevention of chronic migraine: eDiary efficacy (migraine, headache and acute medication use days, responder rates)
# Format: in vivo, human
# Details: for MMDs, LS mean difference vs. placebo / participants with ≥50% reduction in 3-month average of MMDs / ≥50% reduction in 3-month average of MMDs, OR vs placebo: Europe subpopulation
# Protocol: A phase 3, multicenter, randomized, double-blind, placebo-controlled, parallel-group study was carried out to evaluate the efficacy, safety, and tolerability of atogepant for the prevention of chronic migraine. A total of 778 participants from 133 sites in North America, Europe, and East Asia were randomized to one of three treatment arms (placebo, Atogepant 30 mg BID, and Atogepant 60 mg QD) in a 1:1:1 ratio.
# This study comprised a 4-week screening and baseline period, a 12-week double blind treatment period, and a follow-up period of 4 additional weeks. The total study duration was 20 weeks. Participant disposition information and other relevant participant screening information may also be found in FIG. 19.
# The primary end point was the change from baseline in the mean number of migraine days per month across the 12 week treatment period.
# Secondary endpoints included change from baseline in mean monthly headache days across the 12 week treatment period; change from baseline in mean monthly acute medication use days across the 12-week treatment period; at least a 50% reduction in mean monthly migraine days across the 12-week treatment period; change from baseline in MSQ v2.1 Role Function-Restrictive domain score at week 12; change from baseline in mean AIM-D monthly functioning and activity impairment score across the 12-week treatment period; and change from baseline in HIT-6 total score at week 12.
# Inclusion criteria included at least a 1-year history of chronic migraine consistent with diagnosis according to the International Classification of Headache Disorders, 3rd Edition (ICHD-3) and age of the participant at the time of migraine onset <50 years. Inclusion criteria further included confirmation of headache / migraine headache day frequency as follows: history of, on average, ≥15 headache days per month in the 3 months prior to Visit 1 in the opinion of the investigator AND >=15 headache days during the 4-week screening/baseline period per the electronic diary (eDiary) AND >=8 days during the 4-week screening/baseline period that qualify as being a migraine day per the eDiary. Participants were also required to be using a medically acceptable and effective method of birth control during the course of the entire study.
# Exclusion criteria included a history of migraine, accompanied by diplopia or decreased level of consciousness, or retinal migraine; a current diagnosis of new persistent daily headache, trigeminal autonomic cephalgia (e.g., cluster headache), or painful cranial neuropathy; history of an inadequate response to >4 medications (2 of which have different mechanisms of action) prescribed for the prevention of migraine; and woman who is pregnant, planning to become pregnant during the course of the study, or currently lactating.
# • All Screened Participants includes those screened participants who signed informed consent form. • The Intent-to-Treat Population includes all randomized participants. […] Treatment groups assigned as randomized.
# A Subset of patients (11%) was allowed to use one concomitant migraine preventive medication (e.g., amitriptyline, propranolol, topiramate). Patients were allowed to use acute headache treatments (i.e., triptans, ergotamine derivatives, NSAIDs, acetaminophen, and opioids) as needed. Patients with acute medication overuse and medication overuse headache were also enrolled. The use of a concomitant medication that acts on the CGRP pathway was not permitted for either acute or preventive treatment of migraine. The study excluded patients with myocardial infarction, stroke, or transient ischemic attacks within six months prior to screening.
# Outcomes for this analysis included change from baseline in mean MMDs during 4-week intervals, change in weekly migraine days during weeks 1-4, and the proportion of participants with a migraine on each day during the first 7 days of treatment. […] Baseline MMDs ranged from 18.6 to 19.2 across treatment groups. […]
# [1] = 30 mg BID, Off-Treatment Hypothetical Estimand population
# [2] = 30 mg BID, acute medication over-users
# [3] = 30 mg BID, mITT, listed as atogepant
structure (smiles),measurement,setting,value
"C[C@@H]1[C@H](c2c(F)ccc(F)c2F)C[C@H](NC(=O)c2cnc3c(c2)C[C@@]2(C3)C(=O)Nc3ncccc32)C(=O)N1CC(F)(F)F [Atogepant, (S)—N—((3S,5S,6R)-6-methyl-2-oxo-1-(2,2,2-trifluoroethyl)-5-(2,3,6-trifluorophenyl)piperidin-3-yl)-2′-oxo-1′,2′,5,7-tetrahydrospiro[cyclopenta[b]pyridine-6,3′-pyrrolo[2,3-b]pyridine]-3-carboxamide]","MMDs, LS mean difference vs. placebo",30 mg BID,−3.02
same,participants with ≥50% reduction in 3-month average of MMDs,30 mg BID,48.4%
same,"≥50% reduction in 3-month average of MMDs, OR vs placebo",30 mg BID,1.87
same,LS mean change in MMDs,"30 mg BID, Europe subpopulation of OTHE population (n=91)",−8.44
same,decrease of monthly migraine days across the 12 weeks,"30 mg BID, OTHE population",7.33 days
same,">=50% reduction in 3-month average of monthly migraine days, Odds ratio Atogepant vs. Placebo",[1],2.03
same,"Change from baseline in mean monthly acute medication use days across the 12-week treatment period, LS Mean",[1],-6.61 days
same,"Change from baseline in mean monthly acute medication use days across the 12-week treatment period, LSMD Atogepant vs. Placebo",[1],-2.52 days
same,"Change from baseline in mean monthly headache days across the 12-week treatment period, LS Mean",[1],-7.32 days
same,"Change from baseline in mean monthly headache days across the 12-week treatment period, LSMD Atogepant vs. Placebo",[1],-2.14 days
same,"Change from baseline in mean monthly migraine days across the 12-week treatment period, LS Mean",[1],-7.33 days
same,"Change from baseline in mean monthly migraine days across the 12-week treatment period, LSMD Atogepant vs. Placebo",[1],-2.24 days
same,">=50% reduction in 3-month average of monthly migraine days, Responders","30 mg BID, Off-Treatment Hypothetical Estimand population (N = 254)",107 (42.1) n (%)
same,LSM change from baseline in mean monthly acute medication use days,[2],−8.4
same,"mean monthly acute medication use days, LSM difference vs placebo",[2],−2.8
same,participants with ≥50% reduction in mean MMDs across the 12-week treatment period,"30 mg BID, acute medication overuse participants",44.7%
same,">=50% reduction in 3-month average of monthly migraine days, Odds ratio Atogepant vs. Placebo","30 mg BID, mITT",2.13
same,"Change from baseline in mean monthly acute medication use days across the 12-week treatment period, LS Mean","30 mg BID, mITT",-6.73 days
same,"Change from baseline in mean monthly acute medication use days across the 12-week treatment period, LSMD Atogepant vs. Placebo","30 mg BID, mITT",-2.63 days
same,"Change from baseline in mean monthly headache days across the 12-week treatment period, LS Mean","30 mg BID, mITT",-7.44 days
same,"Change from baseline in mean monthly headache days across the 12-week treatment period, LSMD Atogepant vs. Placebo","30 mg BID, mITT",-2.32 days
same,"Change from baseline in mean monthly migraine days across the 12-week treatment period, LS Mean","30 mg BID, mITT",-7.46 days
same,"Change from baseline in mean monthly migraine days across the 12-week treatment period, LSMD Atogepant vs. Placebo","30 mg BID, mITT",-2.41 days
same,decrease of monthly migraine days across the 12 weeks,"30 mg BID, mITT",7.46 days
same,participants with ≥30% reduction in mean MMDs across 12 weeks,"30 mg BID, mITT",62.1%
same,participants with ≥50% reduction in mean MMDs across 12 weeks,"30 mg BID, mITT",42.7%
same,participants with ≥75% reduction in mean MMDs across 12 weeks,"30 mg BID, mITT",21.3%
same,"Change from baseline in mean monthly migraine days across the 12-week treatment period, LS Mean",[3],-7.5 days
same,"Change from baseline in mean monthly migraine days across the 12-week treatment period, LSMD Atogepant vs. Placebo",[3],-2.4 days
same,LSM change from baseline in mean MMDs across 12 weeks,"30 mg BID, participants with acute medication overuse at baseline",−8.3
same,mean change from baseline in MMDs,"30 mg BID, weeks 1-4 of treatment",-6.6 days
same,participants with <30% reduction in mean MMDs in month 1 who experienced ≥30% reduction in either month 2 or 3,30 mg twice daily,50/96
same,participants with <30% reduction in mean MMDs in month 1 who experienced ≥30% reduction in month 2,30 mg twice daily,36/99
same,participants with <50% reduction in mean MMDs in month 1 who experienced ≥50% reduction in either month 2 or 3,30 mg twice daily,52/132
same,participants with <50% reduction in mean MMDs in month 1 who experienced ≥50% reduction in month 2,30 mg twice daily,32/136
same,participants without ≥30% reduction in mean MMDs in months 1 or 2 who experienced a ≥30% response by the end of the trial,30 mg twice daily,23.3%
same,participants without ≥50% reduction in mean MMDs in months 1 or 2 who experienced a ≥50% response by the end of the trial,30 mg twice daily,20.0%
same,sustained response among participants with ≥75% response in month 1,"30 mg twice daily, mITT",46.9%
same,sustained response of ≥30% in months 2 and 3 among participants with ≥30% response in month 1,"30 mg twice daily, mITT",81.8%
same,sustained response of ≥50% in months 2 and 3 among participants with ≥50% response in month 1,"30 mg twice daily, mITT",71.6%
same,"MMDs, LS mean difference vs. placebo",60 mg QD,−2.59
same,participants with ≥50% reduction in 3-month average of MMDs,60 mg QD,46.7%
same,"≥50% reduction in 3-month average of MMDs, OR vs placebo",60 mg QD,1.84
